This is an account of results in patent US3974140A, “Ureidoacetamido-penicillins” (Bayer Aktiengesellschaft, priority 1970, dated 1976).

Common to all, as to test: MIC, liquid medium test tube series dilution test
One test concerns Staph. aureus 133. It is filed as cell-based, Staphylococcus aureus. Conditions: Staph. aureus 133, 24 hours, 37°C. The procedure:
(§1) The chemotherapeutic activity of the new penicillins was tested in vivo and in vitro. The in vitro inhibition values (MIC = minimum inhibition concentration (see Tables 1 and 2) were determined in a liquid medium in the test tube series dilution test, with readings being taken after 24 hours' incubation at 37°C. The MIC is indicated by the non-turbid test tube in the dilution series. A complete medium of the following composition was used as the nutrient medium:
(§2) The figures quoted in the Examples for the effectiveness against certain bacteria (units/ml) are minimum inhibitory concentrations in the test tube series dilution test after 24 hours' incubation.

The test system of another test is E. coli A 261. The format is cell-based. Conditions: E. coli A 261, 24 hours, 37°C. The method, then: as §1, §2
In another test the test system is E. coli 14. The format is cell-based. Conditions: E. coli 14, 24 hours, 37°C. The method, then: as §1, §2
A further test deals with E. coli C 165. The format is cell-based. Conditions: E. coli C 165, 24 hours, 37°C. The method, then:
as §1, §2

The next test relates to Klebsiella 63. It is filed as cell-based. Conditions: Klebsiella 63, 24 hours, 37°C. The procedure:
as §1, §2

Test [1] has as its system Streptoc. faec. ATCC 9790. The format is cell-based. Conditions: Strep. faec. (Enterococcus) ATCC 9790, 24 hours, 37°C. The method, then:
as §1, §2

For the next test, the system named is Klebsiella K 10. The format is cell-based. Conditions: Klebsiella K 10, 24 hours, 37°C. The method, then: as §1, §2
In another test the test system is E. coli 183/58. The format is cell-based. Conditions: E. coli 183/58, 24 hours, 37°C. The method, then: as §1, §2
For another test, the system named is Psdm. aerug. Bonn. The format is cell-based, Pseudomonas aerug. Conditions: 24 hours, 37°C. The method, then: as §1, §2
Another test concerns Psdm. aerug. Walter. It is filed as cell-based, Pseudomonas aerug. Conditions: 24 hours, 37°C. The procedure:
as §1, §2

A further test deals with Proteus vulg. 1017. It is filed as cell-based, Proteus vulgaris. Conditions: Proteus vulg. 1017, 24 hours, 37°C. The method, then:
as §1, §2

The subject of a further test is Proteus vulg. 3400. The format is cell-based, Proteus vulgaris. Conditions: Proteus vulg. 3400, 24 hours, 37°C. The method, then:
as §1, §2

The structures appear in SMILES notation. Some results are limits rather than exact numbers.

Take `C=CCN(C(C)=O)C(=O)N[C@@H](C(=O)N[C@@H]1C(=O)N2[C@@H]1SC(C)(C)[C@@H]2C(=O)O)c1ccccc1` [Example 1, Sodium D(-)-α-(3-acetyl-3-allylureido)-benzylpenicillin]: the MIC was 1.6 units/ml in the test on Staph. aureus 133; more than 400 units/ml against E. coli A 261; 25 units/ml against E. coli 14; 100 units/ml against E. coli C 165; 50 units/ml in the test with Klebsiella 63; 200 units/ml in [1]. The MIC against Klebsiella K 10 turned out to be 50 units/ml; against E. coli 183/58, 100 units/ml; in the test on Psdm. aerug. Bonn, 400 units/ml; against Psdm. aerug. Walter it was 200 units/ml; against Proteus vulg. 1017, 400 units/ml; against Proteus vulg. 3400 it was 200 units/ml.
Turning to `Cc1ccc(C(NC(=O)N(C)C(=O)c2ccccc2)C(=O)N[C@@H]2C(=O)N3[C@@H]2SC(C)(C)[C@@H]3C(=O)O)cc1` (stereo partly drawn) [Example 4, Sodium D,L-α-(3-benzoyl-3-methyl-ureido)-p-methylbenzyl-penicillin], the MIC in the test with E. coli A 261 was 100-500 units/ml; against E. coli 14, 0.8-4 units/ml; in the test with E. coli C 165, 4-20 units/ml; against Klebsiella 63 it was 20-100 units/ml; in test [1], 100-500 units/ml; with Klebsiella K 10, 20-100 units/ml. In addition, the MIC in the test with E. coli 183/58 is given as 4-20 units/ml; against Psdm. aerug. Bonn it was 20-100 units/ml; against Psdm. aerug. Walter it was 20-100 units/ml; in the test with Proteus vulg. 1017, 4-20 units/ml; in the test with Proteus vulg. 3400 it was 4-20 units/ml.
With `CN(C(=O)NC(C(=O)N[C@@H]1C(=O)N2[C@@H]1SC(C)(C)[C@@H]2C(=O)O)c1cccs1)C(=O)c1ccco1` (stereo partly drawn) [Example 22, Sodium D,L-α-(3-[2-furoyl]-3-methyl-ureido)-2-thienylmethylpenicillin], the MIC against Staph. aureus 133 was less than 0.8 units/ml; in the test on E. coli A 261, more than 500 units/ml; with E. coli C 165, 4-20 units/ml; in the test with Klebsiella 63 it was 20-100 units/ml; in test [1] it was ~ 20 units/ml; in the test with Psdm. aerug. Walter, 20-100 units/ml. For the same molecule, the MIC against Proteus vulg. 3400 is on record as 4-20 units/ml.
Regarding `CN(C)C(=O)N(C)C(=O)NC(C(=O)N[C@@H]1C(=O)N2[C@@H]1SC(C)(C)[C@@H]2C(=O)O)c1cccs1` (stereo partly drawn) [Example 23, Sodium D,L-α-(3-dimethylaminocarbonyl-3-methyl-ureido)-2-thienylmethylpenicillin], the MIC was 0.8-4 units/ml against Staph. aureus 133; more than 500 units/ml in the test with E. coli A 261; 100-500 units/ml against E. coli C 165; more than 500 units/ml against Klebsiella 63; 100-500 units/ml in test [1]; more than 500 units/ml in the test with Psdm. aerug. Walter. Moreover, the MIC in the test with Proteus vulg. 3400 is recorded as more than 500 units/ml.
`CC1(C)S[C@@H]2[C@H](NC(=O)C(NC(=O)N3CCNC3=O)c3ccc(Cl)cc3)C(=O)N2[C@H]1C(=O)O` (stereo partly drawn) [Example 48 A, Sodium α-[(imidazolidin-2-on-1-yl)-carbonylamino]-p-chlorobenzylpenicillin]: the MIC in the test with E. coli C 165 (listed as 48 A) is listed as 12,5 units/ml; against Klebsiella 63, 50 units/ml; in [1] (listed as 48 A) it was 25 units/ml; in the test on Klebsiella K 10 it was 100 units/ml; in the test on Psdm. aerug. Bonn (listed as 48 A), 25 units/ml; against Proteus vulg. 1017 (listed as 48 A), 25 units/ml. For the same molecule, the MIC against Proteus vulg. 3400 (listed as 48 A) is reported as 50 units/ml.
On to `Cc1noc(C)c1C(=O)N(C)C(=O)N[C@@H](C(=O)N[C@@H]1C(=O)N2[C@@H]1SC(C)(C)[C@@H]2C(=O)O)c1ccccc1` [Example 76], for which the MIC is reported as less than 0.8 units/ml in the test with Staph. aureus 133 and ~ 4 units/ml in the test with E. coli 183/58.
Regarding `COC(=O)N(C)C(=O)N[C@@H](C(=O)N[C@@H]1C(=O)N2[C@@H]1SC(C)(C)[C@@H]2C(=O)O)c1ccccc1` [Example 96, Sodium D(-)-α-(3-methoxycarbonyl-3-methyl-ureido)-benzylpenicillin], the MIC in the test with Staph. aureus 133 was 1.56 units/ml; with Staph. aureus 133 (listed as (B) of Example 10) it was 1.56 units/ml; in the test with E. coli 14 it was 6.25 units/ml; in the test with E. coli 14 (listed as (B) of Example 10), 6.25 units/ml; against E. coli C 165, 12.5 units/ml; in the test on Klebsiella 63 it was 200 units/ml. The MIC stood at 200 units/ml with Klebsiella 63 (listed as (B) of Example 10); 25 units/ml in test [1]; 200 units/ml against Klebsiella K 10; 200 units/ml in the test on Klebsiella K 10 (listed as (B) of Example 10); 25 units/ml in the test on E. coli 183/58; 25 units/ml in the test on E. coli 183/58 (listed as (B) of Example 10). For the same molecule, the MIC in the test on Psdm. aerug. Bonn came to 25 units/ml; in the test with Psdm. aerug. Bonn (listed as (B) of Example 10) it was 25 units/ml; in the test with Psdm. aerug. Walter, 25 units/ml; against Psdm. aerug. Walter (listed as (B) of Example 10) it was 25 units/ml; in the test on Proteus vulg. 1017, 50 units/ml; with Proteus vulg. 3400 it was 50 units/ml.
Consider `CC(C)OC(=O)N(C)C(=O)N[C@@H](C(=O)N[C@@H]1C(=O)N2[C@@H]1SC(C)(C)[C@@H]2C(=O)O)c1ccccc1` [Example 97, Sodium D(-)-α-(3-i-propoxycarbonyl-3-methyl-ureido)-benzylpenicillin], for which the MIC in the test on E. coli 14 is listed as 6.25 units/ml; against E. coli 14 (listed as (B) of Example 11), 6.25 units/ml; in the test with E. coli C 165 it was 25 units/ml; against E. coli C 165 (listed as (B) of Example 11), 25 units/ml; against Klebsiella 63, 50 units/ml; against Klebsiella K 10 it was 400 units/ml. Besides, the MIC was 6.25 units/ml against E. coli 183/58; 6.25 units/ml in the test with E. coli 183/58 (listed as (B) of Example 11); 25 units/ml with Psdm. aerug. Bonn; 25 units/ml against Psdm. aerug. Bonn (listed as (B) of Example 11); 50 units/ml with Psdm. aerug. Walter; 50 units/ml in the test with Psdm. aerug. Walter (listed as (B) of Example 11). Also, the MIC in the test on Proteus vulg. 1017 and in the test on Proteus vulg. 3400 was 25 units/ml each time.
Consider `CCN(C(=O)N[C@@H](C(=O)N[C@@H]1C(=O)N2[C@@H]1SC(C)(C)[C@@H]2C(=O)O)c1ccccc1)C(=O)c1ccc(OC)c([N+](=O)[O-])c1` [Example 108, Sodium D(-)-α-(3-[3-nitro-4-methoxy-benzoyl]-3-ethyl-ureido)benzylpenicillin], for which the MIC against Staph. aureus 133 is reported as less than 0.8 units/ml; in the test with E. coli A 261 it was more than 500 units/ml; in the test on E. coli C 165 it was 4-20 units/ml; against Klebsiella 63 it was 100-500 units/ml; in [1] it was ~ 20 units/ml; with Psdm. aerug. Bonn, 0.8-4 units/ml. Besides, the MIC against Psdm. aerug. Walter and against Proteus vulg. 1017 was 20-100 units/ml each time.
Take `CN(C(=O)N[C@@H](C(=O)N[C@@H]1C(=O)N2[C@@H]1SC(C)(C)[C@@H]2C(=O)O)c1ccccc1)C(=O)c1c(Cl)cccc1Cl` [Example 141, Sodium D(-)-α-(3, o,o'-dichlorobenzoyl-3-methyl-ureido)-benzyl-penicillin]: the MIC against E. coli A 261 amounted to 50 units/ml; against E. coli 14, 0.8 units/ml; with E. coli C 165, 3.1 units/ml; in the test with Klebsiella 63, 12.5 units/ml; with Klebsiella K 10, 6.25 units/ml; in the test with E. coli 183/58, 1.6 units/ml. Besides, the MIC is recorded as 12.5 units/ml in the test on Psdm. aerug. Bonn, 6.25 units/ml in the test with Psdm. aerug. Walter, 3.1 units/ml with Proteus vulg. 1017 and 3.1 units/ml with Proteus vulg. 3400.
Consider `CC1(C)S[C@@H]2[C@H](NC(=O)[C@H](NC(=O)NC(=O)c3ccccc3)c3ccccc3)C(=O)N2[C@H]1C(=O)O` [sodium D(-)-α-(3-benzoylureido)benzylpenicillin, reference compound], for which the values for the MIC in the test with E. coli 14, against Psdm. aerug. Bonn and in the test with Proteus vulg. 3400 were 6.25 units/ml, 25 units/ml and 50 units/ml, respectively.
